Results as given in US5856574A, “Ortho-subsituted benzoylguanidines, process for their preparation, their use as a medicament or diagnostic, and medicament containing them” (Hoechst Aktiengesellschaft, priority 1996, dated 1999).
Counter-ions that a name gives are not always drawn.

What was measured:
[1] = Plasma elimination half life, dog, i.v.; assay type: in vivo; details: iv
[2] = Plasma elimination half life, rat, i.v.; assay type: in vivo; details: iv
[3] = Intraduodenal bioavailability; assay type: in vivo
[4] = target: T1, rabbit erythrocyte Na^+ /H^+ exchanger (Oryctolagus cuniculus, UniProt P23791); test: Inhibition of the rabbit erythrocyte Na^+ /H^+ exchanger (amiloride-sensitive sodium influx, flame photometry); assay type: cell-based, rabbit (New Zealand White); details: rabbit erythrocytes, cholesterol-fed, 37° C., pH 7.4
T1 construct: determine the Na+influx into the erythrocytes by way of Na^+ /H^+ exchange; endogenous in cells; host or cells: intact erythrocytes in heparinised blood of cholesterol-fed New Zealand White rabbits
T1 sequence (P23791 whole entry): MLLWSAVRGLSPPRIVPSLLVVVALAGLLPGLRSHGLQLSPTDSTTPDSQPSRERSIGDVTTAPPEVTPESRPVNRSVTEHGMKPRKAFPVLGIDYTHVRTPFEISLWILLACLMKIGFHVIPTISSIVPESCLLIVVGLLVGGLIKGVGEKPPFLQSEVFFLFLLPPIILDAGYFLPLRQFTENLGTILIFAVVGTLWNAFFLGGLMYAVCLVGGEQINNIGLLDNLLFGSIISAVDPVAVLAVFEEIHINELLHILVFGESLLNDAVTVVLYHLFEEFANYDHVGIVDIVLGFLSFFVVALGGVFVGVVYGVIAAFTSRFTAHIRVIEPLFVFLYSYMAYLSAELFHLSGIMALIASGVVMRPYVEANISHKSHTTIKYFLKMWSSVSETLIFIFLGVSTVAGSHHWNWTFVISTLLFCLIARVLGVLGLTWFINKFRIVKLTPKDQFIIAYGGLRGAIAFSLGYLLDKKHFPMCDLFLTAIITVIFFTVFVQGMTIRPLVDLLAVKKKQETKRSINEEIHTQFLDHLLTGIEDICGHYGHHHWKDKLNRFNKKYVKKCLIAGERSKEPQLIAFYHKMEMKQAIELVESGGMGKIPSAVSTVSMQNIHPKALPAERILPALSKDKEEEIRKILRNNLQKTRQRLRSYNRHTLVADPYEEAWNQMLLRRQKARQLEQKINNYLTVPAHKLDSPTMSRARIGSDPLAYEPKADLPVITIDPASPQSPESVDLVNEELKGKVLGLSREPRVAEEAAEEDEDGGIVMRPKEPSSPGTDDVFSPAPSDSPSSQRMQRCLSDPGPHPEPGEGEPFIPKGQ
Text: Inhibition of the rabbit erythrocyte Na^+ /H^+ exchanger
New Zealand White rabbits (Ivanovas) were given a standard diet containing 2% cholesterol for six weeks in order to activate Na^+ /H^+ exchange and thereby making it possible to use flame photometry to determine the Na+influx into the erythrocytes by way of Na^+ /H^+ exchange. The blood was withdrawn from the aural arteries and rendered incoagulable by adding 25 IU of potassium heparin. A part of each sample was used for determining the hematocrit in duplicate by means of centrifugation. Aliquots of in each case 100 μl were used for measuring the initial content of Na^+ in the erythrocytes.
In order to determine the amiloride-sensitive sodium influx, 100 μl of each blood sample were in each case incubated, at 37° C. and pH 7.4, in 5 ml of a hyper osmolar salt/sucrose medium (mmol/l: 140 NaCl, 3 KCL, 150 sucrose, 0.1 ouabain, 20 tris(hydroxymethyl)aminomethane). After that, the erythrocytes were washed three times with an ice-cold MgCl2 /ouabain solution (mmol/l: 112 MgCl2, 0.1 ouabain) and hemolyzed in 2.0 ml of distilled water. The intracellular content of sodium was determined by flame photometry.
The net Na^+ influx was calculated from the difference between the initial sodium values and the sodium content of the erythrocytes after incubation. The amiloride-inhibitable sodium influx was obtained from the difference in the sodium content of the erythrocytes after incubating them with and without […] amiloride. This procedure was also used in the case of the novel compounds.

Question: Which half-life [1] does the source give for `COc1cc(Cl)c(C(=O)N=C(N)N)cc1C(F)(F)F` [Example 1, 2-Chloro4-methoxy-5-trifluoromethylbenzoylguanidine hydrochloride] here?
Answer: Its half-life is 66 min.

Question: And the half-life [2]?
Answer: Its half-life is 19.2 min.

Question: What about the Intraduodenal bioavailability [3] of the same compound?
Answer: The Intraduodenal bioavailability was “good”.

Question: What about the IC50 [4] of the same compound?
Answer: Its IC50 is 20 nM.

Question: For `NC(N)=NC(=O)c1cc(C(F)(F)F)cc(I)c1Cl` [Example 2, 2-Chloro-3-iodo-5-trifluoromethylbenzoylguanidine hydrochloride], which IC50 [4] is on record?
Answer: The IC50 was 50 nM.

Question: Which IC50 [4] does the source give for `CCCc1cc(C(F)(F)F)cc(C(=O)N=C(N)N)c1Cl` [Example 4, 2-Chloro-3-n-propyl-5-trifluoromethylbenzoylguanidine hydrochloride] here?
Answer: Its IC50 is 70 nM.

Question: With `CC(C)c1cc(C(F)(F)F)cc(C(=O)N=C(N)N)c1Cl` [Example 5, 2-Chloro-3-isopropyl-5-trifluoromethylbenzoylguanidine hydrochloride] as the compound, how does the half-life [2] read?
Answer: The half-life was 42 min.

Question: What about the Intraduodenal bioavailability [3] of the same compound?
Answer: Its Intraduodenal bioavailability is “good”.

Question: And the IC50 [4]?
Answer: Its IC50 is 20 nM.

Question: With `NC(N)=NC(=O)c1cc(C(F)(F)F)cc(C2CCCC2)c1Cl` [Example 6, 2-Chloro-3-cyclopentyl-5-trifluoromethylbenzoylguanidine hydrochloride] as the compound, how does the IC50 [4] read?
Answer: Its IC50 is 60 nM.

Question: Which IC50 [4] does the source give for `NC(N)=NC(=O)c1cc(C(F)(F)F)c(C2CCCC2)cc1Cl` [Example 7, 2-Chloro4-cyclopentyl-5-trifluoromethylbenzoylguanidine hydrochloride] here?
Answer: Its IC50 is 30 nM.

Question: Which IC50 [4] does the source give for `CCCc1cc(Cl)c(C(=O)N=C(N)N)cc1C(F)(F)F` [Example 8, 2-Chloro4-n-propyl-5-trifluoromethylbenzoylguanidine hydrochloride] here?
Answer: Its IC50 is 10 nM.
